Where “and” joins values, the source holds several entries; their conditions need not be identical. Identical values can stand only once. Like-named read-outs stand apart in the source and are kept apart here. Peptide text beside a SMILES is read from it.
What was measured:
[1] = 30 min IV infusion
Description: Animals will be obtained from the Test Facility's colony of adult male cynomolgous monkeys (Macaca fascicularis) of Chinese origin. Animals will be weighed prior to dosing.
Animals will be fasted a minimum of 2 hours prior to procedures requiring the administration of ketamine anesthesia. The diet will also be supplemented with other nutrients by feeding items such as raisins or fresh fruits that are presented to the animal as part of an environmental enrichment program. Offering items known to cause diarrhea will be avoided.
Intravenous administration will be via 30 minute infusion into a temporary percutaneous catheter placed into a saphenous vein. Prior to and following dose administration, the catheter will be flushed with 0.5 mL saline prior to removal. All dosing syringes will be weighed prior to and following dosing.
Serial blood samples will be collected via femoral vein (cephalic or saphenous, as necessary). Approximately 1 mL blood samples will be collected into K2EDTA tubes.
Blood samples will be collected into K2EDTA tubes and stored on wet ice. Whole blood will be processed to plasma by centrifugation (2400-2700 rpm at 5° C.) within 30 minutes of collection. Plasma samples will be split into 2 equal aliquots and stored at −80° C. until analysis.
Prior to extraction, a known concentration of a mass-adjusted internal standard (IS) will be added to assess recovery and allow for quantitation. Purified samples will be further subjected to high-performance liquid chromatography (HPLC) using C18 300 or 130 angstrom columns prior to MS/MS analysis. Multiple charge states will be observed by MS, so MS/MS will be employed to enable multiple reaction monitoring (MRM) analyses to determine the most MRM transitions with the highest signal-to-noise gain. Compound plasma concentrations will be determined by comparing to and compensating with co-purified IS peak intensity and validated calibrated standard curves.
Toxicokinetic parameters will be calculated using non-compartmental methods as implemented in the Phoenix® WinNonlin® ver. 6.3 comprehensive TK/PK analysis software program (Pharsight Corporation; Mountain View, CA) using an IV infusion model. Toxicokinetic analysis will be conducted using a 30-minute intravenous infusion time. Therefore, 30 minutes will be added to each sample time point postdose to obtain nominal time for TK analysis. Nominal times and dosage levels will be used for all calculations. Values below the lower limit of quantitation (BLQ) will be assigned a value of zero for the toxicokinetic calculations. Microsoft® Excel® 2013 will be used for receipt of bioanalytical data, minor formatting, including setting BLQ values to “0”, transfer into WinNonlin® for TK analysis, and calculation of the mean when an approximated value will be excluded. All plasma concentration data from all animals will be included in the analysis. Graphical presentations will be performed using Prism® for Macintosh ver. 7.0a (GraphPad, Inc.; La Jolla, CA).

[2] = test system: Acinetobacter baumannii ATCC BAA-1797 (MDR); assay type: cell-based; details: Acinetobacter baumannii ATCC BAA-1797 (MDR)
In short: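 CLSI broth microdilution in Mueller Hinton II broth with 0.002% polysorbate 80; peptides in 2-fold serial dilution, highest final test concentration 32 mcg/mL. Inoculum approx. 5×10^5 CFU/mL, incubated 35° C for 16 to 20 hrs. MIC taken as lowest peptide concentration preventing visible growth.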

CC(C)[C@H](NC(=O)[C@H](Cc1c[nH]c2ccccc12)NC(=O)[C@H](CCCNC(=N)N)NC(=O)[C@H](CCCNC(=N)N)NC(=O)[C@@H](NC(=O)[C@@H](NC(=O)[C@H](CCCNC(=N)N)NC(=O)[C@@H](NC(=O)[C@@H](NC(=O)[C@H](CCCNC(=N)N)NC(=O)[C@H](CCCNC(=N)N)NC(=O)[C@H](Cc1c[nH]c2ccccc12)NC(=O)[C@@H](NC(=O)[C@H](CCCNC(=N)N)NC(=O)[C@H](CCCNC(=N)N)NC(=O)[C@@H](NC(=O)[C@H](CCCNC(=N)N)NC(=O)[C@H](CCCNC(=N)N)NC(=O)[C@@H](NC(=O)[C@H](Cc1c[nH]c2ccccc12)NC(=O)[C@H](CCCNC(=N)N)NC(=O)[C@@H](N)CCCNC(=N)N)C(C)C)C(C)C)C(C)C)C(C)C)C(C)C)C(C)C)C(C)C)C(=O)N[C@@H](CCCNC(=N)N)C(=O)N[C@@H](CCCNC(=N)N)C(N)=O [SEQ ID NO: 1] (H-RRWVRRVRRVWRRVVRVVRRWVRR-NH2)
AUCinf Extrapolated ([1]; 1 mg/kg, Mean of group): 10.0% | CL ([1]; 1 mg/kg, Mean of group): 18.5 mL/min/kg | Dose Normalized AUClast ([1]; 1 mg/kg, Mean of group): 983 | Dose Normalized Cmax ([1]; 1 mg/kg, Mean of group): 1710 | Vss ([1]; 1 mg/kg, Mean of group): 1.38 L/kg | CL ([1]; 1 mg/kg, individual monkeys): 9.65 mL/min/kg | Dose Normalized AUClast ([1]; 1 mg/kg, individual monkeys): 740 and 1610 and 595 | Dose Normalized Cmax ([1]; 1 mg/kg, individual monkeys): 1460 and 2660 and 997 | AUCinf Extrapolated ([1]; 3 mg/kg, Mean of group): 1.5% | CL ([1]; 3 mg/kg, Mean of group): 7.18 mL/min/kg | Dose Normalized AUClast ([1]; 3 mg/kg, Mean of group): 2530 | Dose Normalized Cmax ([1]; 3 mg/kg, Mean of group): 3450 | T1/2 ([1]; 3 mg/kg, Mean of group): 5.2 h | Tmax ([1]; 3 mg/kg, Mean of group): 6.6 min | AUCinf Extrapolated ([1]; 3 mg/kg, individual monkeys): 1.2% and 2.3% and 1.1% | Dose Normalized AUClast ([1]; 3 mg/kg, individual monkeys): 2220 and 3660 and 1710 | Dose Normalized Cmax ([1]; 3 mg/kg, individual monkeys): 2280 and 5170 and 2900 | T1/2 ([1]; 3 mg/kg, individual monkeys): 5 h | AUCinf Extrapolated ([1]; 10 mg/kg, Mean of group): 1.3% | CL ([1]; 10 mg/kg, Mean of group): 6.32 mL/min/kg | Dose Normalized AUClast ([1]; 10 mg/kg, Mean of group): 5030 | Dose Normalized Cmax ([1]; 10 mg/kg, Mean of group): 3820 | T1/2 ([1]; 10 mg/kg, Mean of group): 4.6 h | AUCinf Extrapolated ([1]; 10 mg/kg, individual monkeys): 1.0% and 1.8% and 0.99% | CL ([1]; 10 mg/kg, individual monkeys): 7.5 mL/min/kg | Dose Normalized Cmax ([1]; 10 mg/kg, individual monkeys): 2600 and 2430 and 6430 | T1/2 ([1]; 10 mg/kg, individual monkeys): 4.3 h and 4.9 h and 4.6 h

Colistin [reference compound]
MIC [2]: 0.5 µg/mL

— patent US20240115654A1, “INTRAVENOUS ADMINISTRATION OF ENGINEERED ANTIMICROBIAL AMPHIPHILIC PEPTIDES” (priority 2021, published 2024)
